Reference: US20240091366A1, “NOVEL ACID-SENSITIVE APTAMER TRIPTOLIDE CONJUGATE AND APPLICATIONS” (priority 2022, published 2024)
Several values for one entry are separate records, joined by “and”; a condition that tells them apart may be missing. Equal entries are not always repeated.

Legend:
Format in all cases: cell-based
Settings in all cases: for cell proliferation inhibition rate: 48 h, samples 1-3
[1] = test system: human normal hepatocytes LO2; assay: MTT assay, cytotoxicity on normal cells
Method: (§1) The same materials as those in Part II above are not repeated here, in addition to the following: human normal hepatocytes LO2, human embryonic kidney cells HEK293 were purchased from the Shanghai Cell Bank of the Chinese Academy of Sciences and preserved in our laboratory.
(§2) Take the […] LO2 and HEK293 cell lines from the liquid nitrogen tank, place them in a 37° C. water bath, wait for the frozen cells to melt into cell suspension, centrifuge the cells at 1000 r/min for 3 min, discard the supernatant, add 1 ml of fresh complete medium containing 10% fetal bovine serum and 1% double antibody to mix the cells, then add 5 ml of medium, gently and repeatedly blowing the cells with a pipette gun to make them mix well. Then add 5 ml of medium, blow the cells gently and repeatedly with a pipette gun to mix them well, and finally transfer the cell suspension to a […] and label the cell name, cell number, date of resuscitation and the operator's name, and place it in a cell culture incubator for cultivation. (HEK293 cell line was cultured with DMEM medium, LO2 cell line was cultured with RPMI1640 medium)
(§3) Take LO2 and HEK293 cells with good growth status, remove the medium, add 1 ml of sterile PBS to wash, add 1.5 ml of trypsin to digest the cells, about 2 min later the cells become round and fall off, add 1.5 ml of medium to terminate the digestion, transfer it to centrifugal tube, centrifuge at 1000 r/min for 3 min, discard the supernatant, add 1 ml of fresh medium to resuspend, then add fresh medium for 1:3 distribution to other culture dishes, and label the date of transmission and the number of generations. Place in the cell culture incubator for cultivation.
(§4) Take LO2 and HEK293 cells with good growth status, by the same operation as the cell passaging experiment, after cell resuspension, cell counting with hemocyte counting plate, with 3000 cells/well, plant in 96-well plate, after 24 h of cell culture, remove the original medium, add medium containing different concentrations of drugs and continue to cultivate for 48 hours. After 24 h of cell culture, the original medium was removed and the medium containing different concentrations of drugs was added to continue the culture for 48 hours. […] The above steps were repeated three times.

[2] = test system: human embryonic kidney cells HEK293; assay: MTT assay, cytotoxicity on normal cells
Method: as §1, §2, §3, §4

[3] = test system: hepatocellular carcinoma cell line HepG2; assay: MTT assay, cell proliferation inhibition
From the text: (§5) Material: aptamer triptolide conjugate (AS1411-TP). Triptolide (TP) was provided by Shanghai Yaji Biotechnology Co. Ltd; aptamer (AS1411) was obtained from Chengdu Pilot Drug Development Co. Ltd; trypsin, thiazolyl blue (MTT) (Biofroxx, Germany); dimethyl sulfoxide (DMSO) (MP Biomedicals, France); fetal bovine serum (FBS) (Newzerum, New Zealand); DMEM medium, RPMI1640 medium, Petri dishes, 96-well plates (Corning, USA); colon cancer cells HCT116, breast cancer cells MDA-MB-231, non-small-cell lung cancer cells A549, pancreatic cancer cells PANC-1, and hepatocellular carcinoma cells HepG2 were purchased from the Shanghai Cell Bank of the Chinese Academy of Sciences and preserved in the laboratory.
(§6) Take the tumor cells HCT116, MDA-MB-231, A549, PANC-1 and HepG2 cell lines from the liquid nitrogen tank, place them in a 37° C. water bath, wait for the frozen cells to melt into cell suspension, centrifuge the cells at 1000 r/min for 3 min, discard the supernatant, add 1 ml of fresh complete medium containing 10% fetal bovine serum and 1% double antibody to mix the cells, then add 5 ml of medium, gently and repeatedly blowing the cells with a pipette gun to make them mix well. Then add 5 ml of medium, blow the cells gently and repeatedly with a pipette gun to mix them well, and finally transfer the cell suspension to a […] and label the cell name, cell number, date of resuscitation and the operator's name, and place it in a cell culture incubator for cultivation. (HCT116, PANC-1 and HepG2 cell lines were cultured in DMEM medium, while MDA-MB-231 cell line and A549 cell line were cultured in RPMI1640 medium).
as §3, with “HCT116, MDA-MB-231, A549, PANC-1, HepG2” for “LO2 and HEK293”
as §4, with “HCT116, MDA-MB-231, A549, PANC-1, HepG2” for “LO2 and HEK293”, “2500” for “3000”

[4] = test system: lung adenocarcinoma cell line A549; assay: MTT assay, cell proliferation inhibition
From the text: as §5, §6
as §3, with “HCT116, MDA-MB-231, A549, PANC-1, HepG2” for “LO2 and HEK293”
as §4, with “HCT116, MDA-MB-231, A549, PANC-1, HepG2” for “LO2 and HEK293”, “2500” for “3000”

AS1411: nucleolin aptamer, single-stranded oligonucleotide, SEQ ID NO: 1 GGTGGTGGTGGTTGTGGTGGTGGTGG
inhibitory effect on normal cells ([1]; LO2): no significant inhibitory effect | cell proliferation inhibition rate ([1]; LO2, 6.3 nM, 0.0063 µM): 2.1198 and 1.5844 and 2.2503 | cell proliferation inhibition rate ([1]; LO2, 12.5 nM, 0.0125 µM): 3.1924 and 2.7446 and 2.0042 | cell proliferation inhibition rate ([1]; LO2, 25.0 nM, 0.025 µM): 4.5962 and 5.2695 and 5.1506 | cell proliferation inhibition rate ([1]; LO2, 50.0 nM, 0.05 µM): 7.3070 and 6.4174 and 7.0396 | cell proliferation inhibition rate ([1]; LO2, 100.0 nM, 0.1 µM): 7.6842 and 6.8369 and 7.5344 | cell proliferation inhibition rate ([1]; LO2, 200.0 nM, 0.2 µM): 8.3084 and 8.0987 and 13.5426 | inhibitory effect on normal cells ([2]; HEK293): no significant inhibitory effect | cell proliferation inhibition rate ([2]; HEK293, 6.3 nM, 0.0063 µM): 1.4844 and 1.0633 and 2.0955 | cell proliferation inhibition rate ([2]; HEK293, 12.5 nM, 0.0125 µM): 2.3262 and 2.9846 and 3.9285 | cell proliferation inhibition rate ([2]; HEK293, 25.0 nM, 0.025 µM): 4.6088 and 4.6251 and 5.5956 | cell proliferation inhibition rate ([2]; HEK293, 50.0 nM, 0.05 µM): 5.9341 and 4.5183 and 7.0200 | cell proliferation inhibition rate ([2]; HEK293, 100.0 nM, 0.1 µM): 9.5603 and 9.9858 and 6.6667 | cell proliferation inhibition rate ([2]; HEK293, 200.0 nM, 0.2 µM): 13.0496 and 11.5603 and 7.0200 | cell proliferation inhibition rate ([3]; HepG2, 3.1 nM, 0.0031 µM): 2.0417 and 2.2455 and 2.1946 | cell proliferation inhibition rate ([3]; HepG2, 12.5 nM, 0.0125 µM): 3.5280 and 2.4483 and 3.6148 | cell proliferation inhibition rate ([3]; HepG2, 25.0 nM, 0.025 µM): 4.1258 and 3.9268 and 4.1946 | cell proliferation inhibition rate ([3]; HepG2, 50.0 nM, 0.05 µM): 8.4300 and 6.9712 and 9.6253 | cell proliferation inhibition rate ([3]; HepG2, 100.0 nM, 0.1 µM): 7.2906 and 11.7328 and 8.7216 | cell proliferation inhibition rate ([3]; HepG2, 200.0 nM, 0.2 µM): 10.3764 and 15.8325 and 9.9457 | inhibitory effect on tumor cell ([3]; HepG2, at the experimental concentration): did not have any significant inhibitory effect | cell proliferation inhibition rate ([4]; A549, 12.5 nM, 0.0125 µM): 5.5843 and 7.7330 and 4.4586 | cell proliferation inhibition rate ([4]; A549, 25.0 nM, 0.025 µM): 6.8129 and 6.6467 and 6.1306 | cell proliferation inhibition rate ([4]; A549, 50.0 nM, 0.05 µM): 9.0069 and 8.0722 and 7.6624 | cell proliferation inhibition rate ([4]; A549, 100.0 nM, 0.1 µM): 11.4727 and 11.8492 and 10.6369 | cell proliferation inhibition rate ([4]; A549, 200.0 nM, 0.2 µM): 14.5704 and 11.4171 and 14.3285 | inhibitory effect on tumor cell ([4]; A549, at the experimental concentration): did not have any significant inhibitory effect
